From US20190322676A1, “CERAMIDE GALACTOSYLTRANSFERASE INHIBITORS FOR THE TREATMENT OF DISEASE” (BioMarin Pharmaceutical Inc., priority 2016, published 2019)
pIC50: −log10 of the molar value. Counter-ions that a name gives are not always drawn.

What follows are molecules tested against T1, human CGT (ceramide galactosyltransferase), CHO/CGT lysate (Homo sapiens, UniProt Q16880) (assay: CGT enzyme assay, RapidFire/MS/MS readout (Table 1 ranges with one asterisk *)). Conditions: RapidFire method (range with one asterisk *).
T1 construct: Full-length human CGT cDNA was cloned into the BamH1/Xho1 site of pcDNA3.1 (+); expressed in transfected cells; host or cells: Chinese hamster ovary (CHO) cells; lysate prepared with M-PER
T1 sequence (Q16880 21-541): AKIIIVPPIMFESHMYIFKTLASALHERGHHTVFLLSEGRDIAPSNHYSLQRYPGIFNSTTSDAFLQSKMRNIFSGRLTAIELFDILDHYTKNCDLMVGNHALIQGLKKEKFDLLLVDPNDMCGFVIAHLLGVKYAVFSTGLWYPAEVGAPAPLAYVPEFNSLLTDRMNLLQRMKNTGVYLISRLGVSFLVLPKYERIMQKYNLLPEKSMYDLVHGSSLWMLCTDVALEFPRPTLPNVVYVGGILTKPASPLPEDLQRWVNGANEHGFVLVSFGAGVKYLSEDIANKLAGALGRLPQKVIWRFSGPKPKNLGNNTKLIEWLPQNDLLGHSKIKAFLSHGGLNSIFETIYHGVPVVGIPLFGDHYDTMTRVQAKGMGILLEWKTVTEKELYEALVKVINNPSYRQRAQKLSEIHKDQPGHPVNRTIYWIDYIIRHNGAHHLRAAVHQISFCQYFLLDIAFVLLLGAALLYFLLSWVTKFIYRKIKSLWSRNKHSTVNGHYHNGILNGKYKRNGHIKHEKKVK
Format: biochemical
How it was run: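 IC50s come from variable-slope dose-response fits of internal-standard-normalized C6-NBD-dihydro-galactosylceramide, measured by RapidFire/MS/MS (ESI negative). Reactions: 1 h, 37 °C, human CGT-expressing CHO lysate (4 μg), 0.001–50 μM compound, 10 μM NBD-dihydro-ceramide, 17.5 μM UDP-galactose, 0.5% DMSO, pH 7.2; 0.01% Tween 80 added for ** values.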

CCCCOc1ccc(C(F)(F)[C@@H](C(=O)N2C3CCC2CC(N)C3)N(C)S(=O)(=O)c2ccc3cc(OC4CCCC4)ccc3c2)cc1 (stereo partly drawn) [Compound 51-1, N-((2R)-3-(3-amino-8-azabicyclo[3.2.1]octan-8-yl)-1-(4-butoxyphenyl)-1,1-difluoro-3-oxopropan-2-yl)-6-(cyclopentyloxy)-N-methylnaphthalene-2-sulfonamide] and CCCCOc1ccc(C(F)(F)[C@H](C(=O)N2C3CCC2CC(N)C3)N(C)S(=O)(=O)c2ccc3cc(OC4CCCC4)ccc3c2)cc1 (stereo partly drawn) [Compound 51-2, N-((2S)-3-(3-amino-8-azabicyclo[3.2.1]octan-8-yl)-1-(4-butoxyphenyl)-1,1-difluoro-3-oxopropan-2-yl)-6-(cyclopentyloxy)-N-methylnaphthalene-2-sulfonamide] fall in the same range of pIC50: 5.00 to 6.00 for the first, 5.00 to 6.00 for the second.

First: CN([C@H](C(=O)N1C2CCC1CC(N)C2)C(F)(F)c1ccc(Cl)cc1)S(=O)(=O)c1ccc2cc(OC3CCCC3)ccc2c1 (stereo partly drawn) [Compound 52-1, N-((2R)-3-(3-amino-8-azabicyclo[3.2.1]octan-8-yl)-1-(4-chlorophenyl)-1,1-difluoro-3-oxopropan-2-yl)-6-(cyclopentyloxy)-N-methylnaphthalene-2-sulfonamide]
Second: CN([C@@H](C(=O)N1C2CCC1CC(N)C2)C(F)(F)c1ccc(Cl)cc1)S(=O)(=O)c1ccc2cc(OC3CCCC3)ccc2c1 (stereo partly drawn) [Compound 52-2, N-((2S)-3-(3-amino-8-azabicyclo[3.2.1]octan-8-yl)-1-(4-chlorophenyl)-1,1-difluoro-3-oxopropan-2-yl)-6-(cyclopentyloxy)-N-methylnaphthalene-2-sulfonamide]
The pIC50 of the first is higher: over 6.00 for the first, 4.00 to 4.52 for the second.

Compared with CCCCOc1ccc(C(F)(F)[C@@H](C(=O)N2CCC(N)CC2)N(C)S(=O)(=O)c2ccc3cc(OC4CCCC4)ccc3c2)cc1 [Compound 53-1, (R)—N-(3-(4-aminopiperidin-1-yl)-1-(4-butoxyphenyl)-1,1-difluoro-3-oxopropan-2-yl)-6-(cyclopentyloxy)-N-methylnaphthalene-2-sulfonamide], CCCCOc1ccc(C(F)(F)[C@H](C(=O)N2CCC(N)CC2)N(C)S(=O)(=O)c2ccc3cc(OC4CCCC4)ccc3c2)cc1 [Compound 53-2, (S)—N-(3-(4-aminopiperidin-1-yl)-1-(4-butoxyphenyl)-1,1-difluoro-3-oxopropan-2-yl)-6-(cyclopentyloxy)-N-methylnaphthalene-2-sulfonamide] is lower in pIC50: 5.00 to 6.00 for the first, 4.52 to 5.00 for the second. The first is the more potent here.

First: NC1CC2CCC(C1)N2C(=O)[C@@H](NS(=O)(=O)c1ccc2cc(OC3CCCC3)ccc2c1)C(F)(F)c1ccc(C(F)(F)F)cc1 (stereo partly drawn) [Compound 54-1, N-((2R)-3-(3-amino-8-azabicyclo[3.2.1]octan-8-yl)-1,1-difluoro-3-oxo-1-(4-(trifluoromethyl)phenyl)propan-2-yl)-6-(cyclopentyloxy)naphthalene-2-sulfonamide]
Second: NC1CC2CCC(C1)N2C(=O)[C@H](NS(=O)(=O)c1ccc2cc(OC3CCCC3)ccc2c1)C(F)(F)c1ccc(C(F)(F)F)cc1 (stereo partly drawn) [Compound 54-2, N-((2S)-3-(3-amino-8-azabicyclo[3.2.1]octan-8-yl)-1,1-difluoro-3-oxo-1-(4-(trifluoromethyl)phenyl)propan-2-yl)-6-(cyclopentyloxy) naphthalene-2-sulfonamide]
The pIC50 of the first is higher: over 6.00 for the first, 4.52 to 5.00 for the second.

First: NC1CC2CCC(C1)N2C(=O)[C@@H](NS(=O)(=O)c1ccc2cc(OC3CCCC3)ccc2c1)C(F)(F)c1ccc(-c2ccc(C(F)(F)F)cc2)cc1 (stereo partly drawn) [Compound 55-1, N-((2R)-3-(3-amino-8-azabicyclo[3.2.1]octan-8-yl)-1,1-difluoro-3-oxo-1-(4′-(trifluoromethyl)-[1,1′-biphenyl]-4-yl)propan-2-yl)-6-(cyclopentyloxy) naphthalene-2-sulfonamide trifluoroacetate]
Second: NC1CC2CCC(C1)N2C(=O)[C@H](NS(=O)(=O)c1ccc2cc(OC3CCCC3)ccc2c1)C(F)(F)c1ccc(-c2ccc(C(F)(F)F)cc2)cc1 (stereo partly drawn) [Compound 55-2, N-((2S)-3-(3-amino-8-azabicyclo[3.2.1]octan-8-yl)-1,1-difluoro-3-oxo-1-(4′-(trifluoromethyl)-[1,1′-biphenyl]-4-yl)propan-2-yl)-6-(cyclopentyloxy)naphthalene-2-sulfonamide trifluoroacetate]
The pIC50 of the first is higher: over 6.00 for the first, 5.00 to 6.00 for the second.

Compared with NC1CC2CCC(C1)N2C(=O)[C@@H](NS(=O)(=O)c1ccc2cc(OC3CCCC3)ccc2c1)C(F)(F)c1ccc(-c2ccc(F)cc2)cc1 (stereo partly drawn) [Compound 56-1, N-((2R)-3-(3-amino-8-azabicyclo[3.2.1]octan-8-yl)-1,1-difluoro-1-(4′-fluoro-[1,1′-biphenyl]-4-yl)-3-oxopropan-2-yl)-6-(cyclopentyloxy)naphthalene-2-sulfonamide trifluoroacetate], NC1CC2CCC(C1)N2C(=O)[C@H](NS(=O)(=O)c1ccc2cc(OC3CCCC3)ccc2c1)C(F)(F)c1ccc(-c2ccc(F)cc2)cc1 (stereo partly drawn) [Compound 56-2, N-((2S)-3-(3-amino-8-azabicyclo[3.2.1]octan-8-yl)-1,1-difluoro-1-(4′-fluoro-[1,1′-biphenyl]-4-yl)-3-oxopropan-2-yl)-6-(cyclopentyloxy)naphthalene-2-sulfonamide trifluoroacetate] is lower in pIC50: over 6.00 for the first, 5.00 to 6.00 for the second.

First: NCC1CCN(C(=O)[C@@H](NS(=O)(=O)c2ccc3cc(OC4CCCC4)ccc3c2)C(F)(F)c2ccc(Br)cc2)CC1 [Compound 57-1, (R)—N-(3-(4-(aminomethyl)piperidin-1-yl)-1-(4-bromophenyl)-1,1-difluoro-3-oxopropan-2-yl)-6-(cyclopentyloxy)naphthalene-2-sulfonamide trifluoroacetate]
Second: NCC1CCN(C(=O)[C@H](NS(=O)(=O)c2ccc3cc(OC4CCCC4)ccc3c2)C(F)(F)c2ccc(Br)cc2)CC1 [Compound 57-2, (S)—N-(3-(4-(aminomethyl)piperidin-1-yl)-1-(4-bromophenyl)-1,1-difluoro-3-oxopropan-2-yl)-6-(cyclopentyloxy)naphthalene-2-sulfonamide trifluoroacetate]
The pIC50 of the first is higher: over 6.00 for the first, 4.52 to 5.00 for the second.

First: CCCCOc1ccc(C(F)(F)[C@@H](C(=O)N2CCC(N)CC2)N(C)S(=O)(=O)c2ccc(OCC3CCCCC3)cc2)cc1 [Compound 58-1, (R)—N-(3-(4-aminopiperidin-1-yl)-1-(4-butoxyphenyl)-1,1-difluoro-3-oxopropan-2-yl)-4-(cyclohexylmethoxy)-N-methylbenzenesulfonamide]
Second: CCCCOc1ccc(C(F)(F)[C@H](C(=O)N2CCC(N)CC2)N(C)S(=O)(=O)c2ccc(OCC3CCCCC3)cc2)cc1 [Compound 58-2, (S)—N-(3-(4-aminopiperidin-1-yl)-1-(4-butoxyphenyl)-1,1-difluoro-3-oxopropan-2-yl)-4-(cyclohexylmethoxy)-N-methylbenzenesulfonamide]
The pIC50 of the first is higher: 5.00 to 6.00 for the first, 4.52 to 5.00 for the second.

First: NC1CC2CCC(C1)N2C(=O)[C@@H](NS(=O)(=O)c1ccc(OCC2CCCCC2)cc1)C(F)(F)c1ccc(C(F)(F)F)cc1 (stereo partly drawn) [Compound 59-1, N-((2R)-3-(3-amino-8-azabicyclo[3.2.1]octan-8-yl)-1,1-difluoro-3-oxo-1-(4-(trifluoromethyl)phenyl)propan-2-yl)-4-(cyclohexylmethoxy)benzenesulfonamide]
Second: NC1CC2CCC(C1)N2C(=O)[C@H](NS(=O)(=O)c1ccc(OCC2CCCCC2)cc1)C(F)(F)c1ccc(C(F)(F)F)cc1 (stereo partly drawn) [Compound 59-2, N-((2S)-3-(3-amino-8-azabicyclo[3.2.1]octan-8-yl)-1,1-difluoro-3-oxo-1-(4-(trifluoromethyl)phenyl)propan-2-yl)-4-(cyclohexylmethoxy) benzenesulfonamide]
The pIC50 of the first is higher: over 6.00 for the first, 5.00 to 6.00 for the second.

Compared with NC1CC2CCC(C1)N2C(=O)[C@@H](NS(=O)(=O)c1ccc(OCC2CCCC2)cc1)C(F)(F)c1ccc(C(F)(F)F)cc1 (stereo partly drawn) [Compound 60-1, N-((2R)-3-(3-amino-8-azabicyclo[3.2.1]octan-8-yl)-1,1-difluoro-3-oxo-1-(4-(trifluoromethyl)phenyl)propan-2-yl)-4-(cyclopentylmethoxy) benzenesulfonamide], NC1CC2CCC(C1)N2C(=O)[C@H](NS(=O)(=O)c1ccc(OCC2CCCC2)cc1)C(F)(F)c1ccc(C(F)(F)F)cc1 (stereo partly drawn) [Compound 60-2, N-((2S)-3-(3-amino-8-azabicyclo[3.2.1]octan-8-yl)-1,1-difluoro-3-oxo-1-(4-(trifluoromethyl)phenyl)propan-2-yl)-4-(cyclopentylmethoxy)benzenesulfonamide] is lower in pIC50: 5.00 to 6.00 for the first, 4.52 to 5.00 for the second. The first is the more potent here.

NC1CCN(C(=O)[C@@H](NS(=O)(=O)c2ccc3cc(OC4CCCC4)ccc3c2)C(F)(F)c2ccc(Oc3ccccc3)cc2)CC1 [Compound 61-1, (R)—N-(3-(4-aminopiperidin-1-yl)-1,1-difluoro-3-oxo-1-(4-phenoxyphenyl)propan-2-yl)-6-(cyclopentyloxy)naphthalene-2-sulfonamide] and NC1CCN(C(=O)[C@H](NS(=O)(=O)c2ccc3cc(OC4CCCC4)ccc3c2)C(F)(F)c2ccc(Oc3ccccc3)cc2)CC1 [Compound 61-2, (S)—N-(3-(4-aminopiperidin-1-yl)-1,1-difluoro-3-oxo-1-(4-phenoxyphenyl)propan-2-yl)-6-(cyclopentyloxy)naphthalene-2-sulfonamide] cannot be ordered by pIC50: over 6.00 for the first, over 6.00 for the second.
